Consider three compounds from publication PMC11459172 (Proceedings of the National Academy of Sciences of the …, 2024).

The subject of assay [1] is PARP1/2. It is filed as cell-based, human. Particulars: TruHD fibroblasts, HD vs control; as Fig 3B; SI Fig S6C.
The target of assay [2] is PARG (Homo sapiens, UniProt Q86W56). It is filed as cell-based. Particulars: TruHD fibroblasts, HD vs control.
Assay [3] addresses PARP1 (Homo sapiens, UniProt P09874). Briefly: In vitro PARP1 autoPARylation reaction with recombinant HTT-HAP40, western blot. It is filed as biochemical. The conditions noted are these: 10 fmol recombinant PARP1, 2 h at 30 °C, increasing amounts of HTT-HAP40.
Assay [4] is described as follows: Fluorescence polarization with FAM-labeled 11-mer or 26-mer PAR. It is filed as binding. Particulars: 25 nM FAM-labeled PAR, up to 10 μM protein. (In general: Polarisation of emitted light reports the rotation of a fluorescent probe.)

PARG, sequence (Q86W56 whole entry): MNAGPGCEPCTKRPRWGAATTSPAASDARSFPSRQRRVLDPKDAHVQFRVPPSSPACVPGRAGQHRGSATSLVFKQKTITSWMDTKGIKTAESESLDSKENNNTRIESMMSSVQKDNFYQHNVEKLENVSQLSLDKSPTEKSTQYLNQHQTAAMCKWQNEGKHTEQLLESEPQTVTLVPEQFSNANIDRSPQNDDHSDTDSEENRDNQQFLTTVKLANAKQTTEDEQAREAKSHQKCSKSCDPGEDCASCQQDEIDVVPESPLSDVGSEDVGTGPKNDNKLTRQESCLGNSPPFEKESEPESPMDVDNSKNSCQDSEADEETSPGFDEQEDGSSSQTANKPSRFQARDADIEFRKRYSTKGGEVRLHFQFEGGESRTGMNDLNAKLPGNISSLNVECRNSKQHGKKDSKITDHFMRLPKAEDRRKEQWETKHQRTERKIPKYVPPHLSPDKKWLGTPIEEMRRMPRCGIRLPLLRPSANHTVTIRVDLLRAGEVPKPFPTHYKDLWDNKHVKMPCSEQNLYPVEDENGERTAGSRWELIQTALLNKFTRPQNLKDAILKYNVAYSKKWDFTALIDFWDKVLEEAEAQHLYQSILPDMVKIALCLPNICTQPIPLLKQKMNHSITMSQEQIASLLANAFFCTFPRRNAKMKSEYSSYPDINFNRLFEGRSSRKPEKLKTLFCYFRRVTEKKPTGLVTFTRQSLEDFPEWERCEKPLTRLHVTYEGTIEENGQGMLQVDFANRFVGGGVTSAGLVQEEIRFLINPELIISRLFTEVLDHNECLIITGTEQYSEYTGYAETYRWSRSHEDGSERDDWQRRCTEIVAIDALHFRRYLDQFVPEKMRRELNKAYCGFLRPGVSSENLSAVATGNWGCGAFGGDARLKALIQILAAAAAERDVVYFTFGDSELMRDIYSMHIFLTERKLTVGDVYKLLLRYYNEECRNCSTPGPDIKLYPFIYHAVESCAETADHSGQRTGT
PARP1, sequence (P09874 whole entry): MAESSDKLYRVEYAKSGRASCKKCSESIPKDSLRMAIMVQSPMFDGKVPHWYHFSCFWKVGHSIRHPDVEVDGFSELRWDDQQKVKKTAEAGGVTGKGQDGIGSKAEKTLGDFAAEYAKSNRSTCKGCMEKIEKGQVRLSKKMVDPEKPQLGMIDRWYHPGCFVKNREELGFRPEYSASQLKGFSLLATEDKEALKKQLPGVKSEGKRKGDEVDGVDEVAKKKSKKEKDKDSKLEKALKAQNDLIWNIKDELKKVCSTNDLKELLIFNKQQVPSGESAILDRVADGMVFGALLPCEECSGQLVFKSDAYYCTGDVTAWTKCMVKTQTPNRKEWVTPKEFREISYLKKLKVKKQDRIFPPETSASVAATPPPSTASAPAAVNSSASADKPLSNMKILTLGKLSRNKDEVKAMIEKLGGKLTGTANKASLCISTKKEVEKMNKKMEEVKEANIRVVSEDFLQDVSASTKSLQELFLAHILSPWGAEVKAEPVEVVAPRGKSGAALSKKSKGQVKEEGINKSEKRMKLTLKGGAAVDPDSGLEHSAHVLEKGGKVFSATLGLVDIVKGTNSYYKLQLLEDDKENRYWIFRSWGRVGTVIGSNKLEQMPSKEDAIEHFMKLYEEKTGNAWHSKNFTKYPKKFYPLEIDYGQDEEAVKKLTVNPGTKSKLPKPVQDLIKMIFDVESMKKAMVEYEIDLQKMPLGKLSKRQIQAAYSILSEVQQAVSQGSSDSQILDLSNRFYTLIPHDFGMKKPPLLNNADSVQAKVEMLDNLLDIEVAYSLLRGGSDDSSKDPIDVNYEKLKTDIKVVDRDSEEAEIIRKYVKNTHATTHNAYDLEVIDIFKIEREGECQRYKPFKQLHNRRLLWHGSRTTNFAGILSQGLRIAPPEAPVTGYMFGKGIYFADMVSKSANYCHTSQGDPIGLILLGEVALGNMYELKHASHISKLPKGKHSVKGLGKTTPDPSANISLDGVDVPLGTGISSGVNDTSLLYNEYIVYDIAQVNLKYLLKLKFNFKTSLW

In the case of `Cn1ncnc1[C@H]1c2n[nH]c(=O)c3cc(F)cc(c23)N[C@@H]1c1ccc(F)cc1` [talazoparib], the “PARP inhibitor IC50, HD cells compared to controls” value in assay [1] is given as “reduced IC50 in HD cells”.
PDD00017273: in assay [2], the “PARG inhibitor IC50, HD compared to control cells” value was “no difference between HD and control cells”.
On to “wild-type HTT: purified recombinant wild-type huntingtin in complex with HAP40, Q23”, for which the “Effect on PARP1 autoPARylation activity” value in assay [3] is “stimulated PARP1 activity in a dose-dependent manner”. In addition, the “PAR binding by fluorescence polarization” value was “binds long (26-mer) PAR chains, in preference to shorter (11-mer) substrates” in assay [4] (listed as HTT) and “lower binding than the positive control PAR-binding protein HUWE1, but higher binding than the negative control non-PAR-binding protein USP5” in assay [4] (listed as HTT-HAP40 Q23).
